According to PMC7824081, “Inhibition of DOT1L by Half-Selenopsammaplin A Analogs Suppresses Tumor Growth and EMT-Mediated Metastasis in Triple-Negative Breast Cancer” (Pharmaceuticals, 2020):

Tests used:
[1] = test system: MDA-MB-231 cells; experiment: Transwell cell invasion assay; type: cell-based, human; details: 24 h pretreatment, 24 h Transwell
Procedure: Twenty-four-well Transwell membrane inserts (diameter: 6.5 mm, pore size: 8 μm; Corning, Tewksbury, MA, USA) were each coated with 10 μL of type I collagen (0.5 mg/mL, BD Biosciences, San Diego, CA, USA) and 20 μL of a 1:20 mixture of Matrigel (BD Biosciences) in PBS. After treatment with the indicated compounds for 24 h, MDA-MB-231 human TNBC cells were harvested, resuspended in serum-free medium, and plated (2 × 10^5 cells/chamber) in the upper chambers of the Matrigel-coated Transwell inserts. Medium containing 30% FBS was used as a chemoattractant in the lower chambers. After a 24 h incubation, the cells that had migrated to the outer surfaces of the lower chambers were fixed and stained using the Diff-Quik Staining Kit (Sysmex, Kobe, Japan) and imaged using a Vectra 3.0 Automated Quantitative Pathology Imaging System (Perkin Elmer, Waltham, MA, USA). Representative images from three separate experiments are shown, and the numbers of invaded cells were counted in 5 randomly selected microscopic fields (200× magnification).

[2] = test system: MDA-MB-231/Luc cells-implanted orthotopic mouse model; experiment: MDA-MB-231/Luc-implanted orthotopic mouse tumor model; type: in vivo; details: for tumor growth inhibition rate: end of experiment
Procedure: All animal experiments were conducted following the guidelines approved by the Seoul National University Institutional Animal Care and Use Committee (IACUC; permission number: SNU-180430-4-1). Female nude mice (BALB/c-nu), 4 weeks old, were purchased from Central Laboratory Animal, Inc. (Seoul, Korea) and housed under pathogen-free conditions with a 12 h light-dark schedule. Luciferase expressing MDA-MB-231 cells were inoculated orthotopically into the fourth fat pad of mice (1 × 10^7 cells in 100 μL of 50:50 PBS/Matrigel) using a 29-gauge needle. Two weeks after implantation, mice were randomized into vehicle control and treatment groups of six animals per group and were administered with vehicle (EtOH/Cremophor/Normal saline = 5:5:90), 9l (10 or 30 mg/kg body weight), EPZ-5676 (30 mg/kg body weight), or paclitaxel (5 mg/kg body weight, Sigma-Aldrich) as a positive reference control. Compounds were administered intraperitoneally three times per week for 38 days. An additional week later, anesthetized mice were positioned in IVIS (PerkinElmer, Waltham, MA, USA) and were imaged 15 min after injection of 150 mg/kg D-luciferin (Gold Biotechnology, St. Louis, MO, USA) resuspended in DPBS (w/o calcium or magnesium). Mice were euthanized and primary tumors and lungs were excised, weighed, and frozen for further biochemical analysis. The length (L), width (W), and height (H) of the tumors were also measured using a digital slide caliper (Mitutoyo, Kawasaki, Japan) once a week, and tumor volumes (mm^3) were estimated by the formula LWH/2. Toxicity was evaluated based on body weight loss.
A portion of the frozen tumors excised from nude mice on the termination day of the experiment was homogenized using a hand-held homogenizer in complete lysis buffer (Active Motif, Carlsbad, CA, USA). Aliquots were stored at −80 °C, and the levels of protein expression in the tumor lysates were determined. The protein concentrations in the tumor lysates were measured using the Bradford assay.

[3] = IVIS imaging, vs vehicle-treated control
[4] = western blotting of tumor lysates

For `CC(C)(C)c1ccc(C/C(=N\O)C(=O)NCC[Se]Sc2ccccc2)cc1` [9l, (E)-3-(4-(tert-Butyl)phenyl)-2-(hydroxyimino)-N-(2-((phenylthio)selanyl)ethyl)propanamide], which cell invasion [1] is on record?
Its cell invasion is “significantly inhibited”.

And the “tumor growth inhibition rate” value ([2]; 10 mg/kg i.p., three times per week for 38 days)?
The value was 44.0%.

What about the “tumor growth inhibition rate” value ([2]; 30 mg/kg i.p., three times per week for 38 days) of the same compound?
The value was 55.8%.

What about the “toxicity / body weight change” value ([2]; 10 or 30 mg/kg i.p., three times per week for 38 days) of the same compound?
Its value is “No overt toxicity or changes in body weight”.

And the “luminescence signal intensity from the primary tumor sites” value [2, 3]?
The value was “decreased”.

And the “luminescence signal intensity in excised lung tissues (lung metastasis)” value [2, 3]?
The value was “efficiently suppressed”.

And the “E-cadherin level in excised tumors” value [2, 4]?
The value was “upregulated”.

What about the “H3K79me2 protein level in excised tumors” value [2, 4] of the same compound?
The value was “downregulated”.

And the “Ki-67 expression in tumor tissues” value [2, 4]?
The value was “significantly suppressed”.

What about the “N-cadherin protein level in excised tumors” value [2, 4] of the same compound?
Its value is “downregulated”.

And the “vimentin protein level in excised tumors” value [2, 4]?
The value was “downregulated”.
